This is an account of results in patent US8889861B2, “Crystalline forms of a purine derivative” (Cyclacel Limited, priority 2010, dated 2014).

Each structure is given as a SMILES string.

A short description of series [1]: Gravimetric vapour sorption (GVS) / hygroscopicity. Type of series: physicochemical. As to the method:
Gravimetric Vapour Sorption (GVS)
Sorption isotherms were obtained using a SMS DVS Intrinsic moisture sorption analyser, controlled by SMS Analysis Suite software. […] The humidity was controlled by mixing streams of dry and wet nitrogen, with a total flow rate of 200 ml. min^−1. The relative humidity was measured by a calibrated Rotronic probe (dynamic range of 1.0-100% RH), located near the sample. The weight change, (mass relaxation) of the sample as a function of % RH was constantly monitored by the microbalance (accuracy ±0.005 mg). Typically 5-20 mg of sample was placed in a tared mesh stainless steel basket under ambient conditions. The sample was loaded and unloaded at 40% RH and 25° C. (typical room conditions). A moisture sorption isotherm was performed as outlined below (2 scans giving 1 complete cycle). The standard isotherm was performed at 25° C. at 10% RH intervals over a 0.5-90% RH range.
Method Parameters for SMS DVS Intrinsic Experiments:
The sample was recovered after completion of the isotherm and re-analysed by XRPD.
Hiden Isochema Moisture Sorption Analyser (IGAsorp)
Sorption isotherms were obtained using a Hiden Isochema Moisture Sorption Analyser (IGAsorp) controlled by IGAsorp Systems Software V6.50.48. […] The humidity was controlled by mixing streams of dry and wet nitrogen, with a total flow rate of 250 ml. min^−1. The instrument was verified for relative humidity content by measuring three calibrated Rotronic salt solutions (10-50-88%). The weight change of the sample as a function of % RH was monitored by microbalance (accuracy ±0.005 mg). A defined amount of sample was placed in a tared mesh stainless steel basket under ambient conditions. A full experimental cycle consisted of two scans (sorption and desorption) at a constant temperature (25° C.) and 10% RH intervals over a 10-90% RH range (90 minutes for each humidity level).
11.254 mg of sample was placed in a tarred mesh stainless steel basket under ambient conditions. A full experimental cycle consisted of two scans (sorption and desorption) at a constant temperature (25° C.) and 10% RH intervals over a 40-90% range (180 minutes for each humidity level). The mass increase of approximately 0.09 mg (−0.8%) and the facile uptake and loss relative to humidity level indicates a non-hygroscopic sample that dampens with surface moisture only.

Series [2] is described as follows: Storage in a humidity chamber at 25° C. (75%, 94% or 97% RH). Type of series: physicochemical. Particulars: 25° C. and 94% RH for 88 hours. As to the method:
However, a large proportion of the peaks corresponding to compound (I) appear as broadened multiplets, probably due to the presence of the sulfonic acid group, making successful assignment non-trivial. A significant quantity of residual TBME was also visible, though this is believed to be unbound solvent rather than a solvate. XRPD analysis confirmed the material to be crystalline. […] Deliquescence of a sample of the product was observed after storage in a humidity chamber at 25° C. and 94% RH for 2 hours. […]

Series [3] is described as follows: Rehydration under ambient conditions followed by TGA. The class given is physicochemical. Particulars: 8 mg sample in open TGA pan after heating to 100° C., ambient conditions (approximately 25° C. and 40% RH). As to the method: A sample of product was heated to 100° C., held for 10 minutes, cooled to 30° C., held for 5 minutes and then re-heated to 250° C. […] To investigate whether the phosphate salt exists as a hydrate under ambient conditions that can be reversibly dehydrated at temperature in the presence of air, a series of TGA experiments were undertaken to clarify how quickly the material rehydrates under ambient conditions. A series of samples were taken to 100° C. then cooled to 25° C. under nitrogen using the TGA equipment. The samples were stored under ambient conditions (RT in air) for varying times and then the TGA experiment was re-run. As a comparison a heat/cool/heat experiment was undertaken under an inert atmosphere of nitrogen using the TGA; a sample was heated to 100° C., cooled to 25° C. and heated to 100° C. for a second time.
Within 30 minutes an 8 mg sample of product in an open TGA pan had fully rehydrated.

Series [4] deals with cyclin dependent kinases. To be noted: cited from earlier work.
Series [5] concerns range of different cell lines. To be noted: cited from earlier work.

For `CC[C@H](Nc1nc(NCc2cnc(C)cc2C)c2ncn(C(C)C)c2n1)[C@@H](C)O` [Form B], the “hygroscopicity” value in series [1] is listed as “not to be hygroscopic”. In addition, in series [1] (GVS at 25° C.), the “XRPD of sample post GVS” value is listed as “matched those acquired from product crystallised from ethanol”, the “uptake of water above 80% RH” value is roughly 1.5 weight % and the “water lost upon taking to 0% RH” value was found to be 0.5 weight %. Further, in series [1] (GVS at 40° C.), the “XRPD of sample post GVS” value was “matched those acquired from product crystallised from ethanol”, the “uptake of water above 80% RH” value is given as roughly 2 weight % and the “water lost upon taking to 0% RH” value is given as roughly 2.6 weight %. Besides, in series [2], the XRPD after storage result was “matched those acquired for the phosphate salt crystallised from ethanol” and the appearance after storage result is on record as “no deliquescence was observed”. Also, in series [3], the “time to full rehydration” value is no more than 30 min.

Regarding `CC[C@H](Nc1nc(NCc2cnc(C)cc2C)c2ncn(C(C)C)c2n1)[C@@H](C)O` [compound (I)], the CDK inhibitory activity result in series [4] is “potent”. Also, the “potency in cellular toxicity studies” value in series [5] was “surprisingly high potency”.
